The source made the active and inactive calls. No cut-off for these calls is given here.
Experiments:
CCRF-CEM [1] = assay: Cell cycle arrest in human CCRF-CEM cells assessed as accumulation of cells at G1/G0 phase at 8 uM after 48 hrs by RNAse/propidium iodide staining based flow cytometry (reference value: 28.3%); type: functional
CCRF-CEM [2] = assay: Induction of apoptosis in human CCRF-CEM cells assessed as viable cells at 8 uM after 48 hrs by Annexin V/propidium iodide staining based flow cytometry (reference value: 90.4%); type: functional; details: read-out: Activity
[3] = molecular target: T1, MAP kinase p38 (Homo sapiens) (UniProt O15264+Q15759+Q16539+P53778); assay: Activation of p38 in human CCRF-CEM cells assessed as increase in p38 level at 8 uM incubated for 1 to 6 hrs by Western blot analysis; type: cell-based
CCRF-CEM [4] = assay: Induction of apoptosis in human CCRF-CEM cells assessed as viable cells at 8 uM after 24 hrs by Annexin V/propidium iodide staining based flow cytometry (reference value: 90.4%); type: functional; details: read-out: Activity
CCRF-CEM [5] = assay: Induction of apoptosis in human CCRF-CEM cells assessed as viable cells at 2 uM after 72 hrs by Annexin V/propidium iodide staining based flow cytometry (reference value: 90.4%); type: functional; details: read-out: Activity
CCRF-CEM [6] = assay: Cell cycle arrest in human CCRF-CEM cells assessed as accumulation of cells at G2/M phase at 8 uM after 24 hrs by RNAse/propidium iodide staining based flow cytometry (reference value: 25.6%); type: functional
CCRF-CEM [7] = assay: (§1) Induction of apoptosis in human CCRF-CEM cells assessed as early apoptotic cells at 8 uM after 72 hrs by Annexin V/propidium iodide staining based flow cytometry (reference value: 0.87%); type: functional
CCRF-CEM [8] = assay: Induction of apoptosis in human CCRF-CEM cells assessed as necrotic cells at 8 uM after 8 hrs by Annexin V/propidium iodide staining based flow cytometry (reference value: 0.11%); type: functional
CCRF-CEM [9] = assay: Induction of apoptosis in human CCRF-CEM cells assessed as early apoptotic cells at 8 uM after 24 hrs by Annexin V/propidium iodide staining based flow cytometry (reference value: 0.87%); type: functional
CCRF-CEM [10] = assay: Cell cycle arrest in human CCRF-CEM cells assessed as accumulation of cells at sub G1 phase at 8 uM after 24 hrs by RNAse/propidium iodide staining based flow cytometry (reference value: 0.1%); type: functional
CCRF-CEM [11] = assay: Induction of apoptosis in human CCRF-CEM cells at 8 uM by Annexin V-FITC/propidium iodide staining based flow cytometry; type: functional, cell-based; details: TDE = time-dependent effect
CCRF-CEM [12] = assay: Induction of apoptosis in human CCRF-CEM cells after 72 hrs by Annexin V-FITC/propidium iodide staining based flow cytometry; type: functional, cell-based
CCRF-CEM [13] = assay: Induction of apoptosis in human CCRF-CEM cells assessed as late apoptotic cells at 4 uM after 72 hrs by Annexin V/propidium iodide staining based flow cytometry (reference value: 8.60%); type: functional
[14] = molecular target: T2, c-Jun N-terminal kinase, JNK (Homo sapiens) (UniProt P45983+P53779+P45984); assay: Activation of JNK in human CCRF-CEM cells assessed as increase in JNK level at 8 uM incubated for 1 to 6 hrs by Western blot analysis; type: cell-based
CCRF-CEM [15] = assay: Induction of apoptosis in human CCRF-CEM cells assessed as viable cells at 4 uM after 72 hrs by Annexin V/propidium iodide staining based flow cytometry (reference value: 90.4%); type: functional; details: read-out: Activity
CCRF-CEM [16] = assay: Induction of apoptosis in human CCRF-CEM cells assessed as viable cells at 16 uM after 72 hrs by Annexin V/propidium iodide staining based flow cytometry (reference value: 90.4%); type: functional; details: read-out: Activity
CCRF-CEM [17] = assay: Cell cycle arrest in human CCRF-CEM cells assessed as accumulation of cells at G1/G0 phase at 8 uM after 72 hrs by RNAse/propidium iodide staining based flow cytometry (reference value: 28.3%); type: functional
CCRF-CEM [18] = assay: (§2) Induction of apoptosis in human CCRF-CEM cells assessed as late apoptotic cells at 8 uM after 72 hrs by Annexin V/propidium iodide staining based flow cytometry (reference value: 8.60%); type: functional
CCRF-CEM [19] = assay: Induction of apoptosis in human CCRF-CEM cells assessed as necrotic cells at 8 uM after 48 hrs by Annexin V/propidium iodide staining based flow cytometry (reference value: 0.11%); type: functional
CCRF-CEM [20] = assay: Induction of apoptosis in human CCRF-CEM cells assessed as early apoptotic cells at 4 uM after 72 hrs by Annexin V/propidium iodide staining based flow cytometry (reference value: 0.87%); type: functional
CCRF-CEM [21] = assay: Induction of apoptosis in human CCRF-CEM cells assessed as late apoptotic cells at 16 uM after 72 hrs by Annexin V/propidium iodide staining based flow cytometry (reference value: 8.60%); type: functional
CCRF-CEM [22] = assay: Induction of apoptosis in human CCRF-CEM cells assessed as viable cells at 8 uM after 8 hrs by Annexin V/propidium iodide staining based flow cytometry (reference value: 90.4%); type: functional; details: read-out: Activity
CCRF-CEM [23] = assay: Induction of apoptosis in human CCRF-CEM cells assessed as necrotic cells at 2 uM after 72 hrs by Annexin V/propidium iodide staining based flow cytometry (reference value: 0.11%); type: functional
CCRF-CEM [24] = assay: Cell cycle arrest in human CCRF-CEM cells assessed as accumulation of cells at G2/M phase at 8 uM after 72 hrs by RNAse/propidium iodide staining based flow cytometry (reference value: 25.6%); type: functional
CCRF-CEM [25] = assay: Induction of apoptosis in human CCRF-CEM cells assessed as decrease in Bcl-2 level after 72 hrs by western blot analysis; type: functional, cell-based
CCRF-CEM [26] = assay: Induction of apoptosis in human CCRF-CEM cells assessed as early apoptotic cells at 8 uM after 48 hrs by Annexin V/propidium iodide staining based flow cytometry (reference value: 0.87%); type: functional
CCRF-CEM [27] = assay: Induction of apoptosis in human CCRF-CEM cells assessed as early apoptotic cells at 16 uM after 72 hrs by Annexin V/propidium iodide staining based flow cytometry (reference value: 0.87%); type: functional
CCRF-CEM [28] = assay: as §2; type: functional; remark: listed apart in the source
CCRF-CEM [29] = assay: Cell cycle arrest in human CCRF-CEM cells assessed as accumulation of cells at sub G1 phase at 8 uM after 48 hrs by RNAse/propidium iodide staining based flow cytometry (reference value: 0.1%); type: functional
CCRF-CEM [30] = assay: Induction of apoptosis in human CCRF-CEM cells assessed as late apoptotic cells at 8 uM after 8 hrs by Annexin V/propidium iodide staining based flow cytometry (reference value: 8.60%); type: functional
CCRF-CEM [31] = assay: Cell cycle arrest in human CCRF-CEM cells assessed as accumulation of cells at G2/M phase at 8 uM after 48 hrs by RNAse/propidium iodide staining based flow cytometry (reference value: 25.6%); type: functional
CCRF-CEM [32] = assay: Induction of apoptosis in human CCRF-CEM cells assessed as necrotic cells at 4 uM after 72 hrs by Annexin V/propidium iodide staining based flow cytometry (reference value: 0.11%); type: functional
CCRF-CEM [33] = assay: Cell cycle arrest in human CCRF-CEM cells assessed as accumulation of cells at S phase at 8 uM after 72 hrs by RNAse/propidium iodide staining based flow cytometry (reference value: 46%); type: functional
CCRF-CEM [34] = assay: Induction of apoptosis in human CCRF-CEM cells assessed as early apoptotic cells at 8 uM after 8 hrs by Annexin V/propidium iodide staining based flow cytometry (reference value: 0.87%); type: functional
CCRF-CEM [35] = assay: (§3) Induction of apoptosis in human CCRF-CEM cells assessed as necrotic cells at 8 uM after 72 hrs by Annexin V/propidium iodide staining based flow cytometry (reference value: 0.11%); type: functional
CCRF-CEM [36] = assay: as §1; type: functional; remark: listed apart in the source
CCRF-CEM [37] = assay: Induction of apoptosis in human CCRF-CEM cells assessed as necrotic cells at 16 uM after 72 hrs by Annexin V/propidium iodide staining based flow cytometry (reference value: 0.11%); type: functional
CCRF-CEM [38] = assay: Cell cycle arrest in human CCRF-CEM cells assessed as accumulation of cells at G1/G0 phase at 8 uM after 24 hrs by RNAse/propidium iodide staining based flow cytometry (reference value: 28.3%); type: functional
[39] = molecular target: T1, MAP kinase p38 (Homo sapiens); assay: Activation of p38 in human CCRF-CEM cells assessed as increase in phosphorylated p38 level at 8 uM incubated for 1 to 6 hrs by Western blot analysis; type: cell-based
CCRF-CEM [40] = assay: Induction of apoptosis in human CCRF-CEM cells assessed as late apoptotic cells at 8 uM after 48 hrs by Annexin V/propidium iodide staining based flow cytometry (reference value: 8.60%); type: functional
CCRF-CEM [41] = assay: Induction of apoptosis in human CCRF-CEM cells assessed as late apoptotic cells at 8 uM after 24 hrs by Annexin V/propidium iodide staining based flow cytometry (reference value: 8.60%); type: functional
CCRF-CEM [42] = assay: Cell cycle arrest in human CCRF-CEM cells assessed as accumulation of cells at sub G1 phase at 8 uM after 72 hrs by RNAse/propidium iodide staining based flow cytometry (reference value: 0.1%); type: functional
CCRF-CEM [43] = assay: Induction of apoptosis in human CCRF-CEM cells assessed as decrease in Bcl-2 level at 8 uM by Western blot analysis; type: functional, cell-based; details: TDE = time-dependent effect
CCRF-CEM [44] = assay: (§4) Induction of apoptosis in human CCRF-CEM cells assessed as viable cells at 8 uM after 72 hrs by Annexin V/propidium iodide staining based flow cytometry (reference value: 90.4%); type: functional; details: read-out: Activity
CCRF-CEM [45] = assay: Induction of apoptosis in human CCRF-CEM cells assessed as late apoptotic cells at 2 uM after 72 hrs by Annexin V/propidium iodide staining based flow cytometry (reference value: 8.60%); type: functional
CCRF-CEM [46] = assay: Cell cycle arrest in human CCRF-CEM cells assessed as accumulation of cells at S phase at 8 uM after 24 hrs by RNAse/propidium iodide staining based flow cytometry (reference value: 46%); type: functional
CCRF-CEM [47] = assay: Induction of apoptosis in human CCRF-CEM cells assessed as early apoptotic cells at 2 uM after 72 hrs by Annexin V/propidium iodide staining based flow cytometry (reference value: 0.87%); type: functional
CCRF-CEM [48] = assay: Cell cycle arrest in human CCRF-CEM cells assessed as accumulation of cells at S phase at 8 uM after 48 hrs by RNAse/propidium iodide staining based flow cytometry (reference value: 46%); type: functional
CCRF-CEM [49] = assay: Induction of apoptosis in human CCRF-CEM cells assessed as necrotic cells at 8 uM after 24 hrs by Annexin V/propidium iodide staining based flow cytometry (reference value: 0.11%); type: functional
CCRF-CEM [50] = assay: as §3; type: functional; remark: listed apart in the source
[51] = molecular target: T2, c-Jun N-terminal kinase, JNK (Homo sapiens); assay: Activation of JNK in human CCRF-CEM cells assessed as increase in phosphorylated JNK level at 8 uM incubated for 1 to 6 hrs by Western blot analysis; type: cell-based
CCRF-CEM [52] = assay: Induction of apoptosis in human CCRF-CEM cells assessed as increase in Bax level after 72 hrs by western blot analysis; type: functional, cell-based
CCRF-CEM [53] = assay: Induction of apoptosis in human CCRF-CEM cells assessed as increase in Bax level at 8 uM by Western blot analysis; type: functional, cell-based; details: TDE = time-dependent effect
CCRF-CEM [54] = assay: as §4; type: functional; details: read-out: Activity; remark: listed apart in the source

O=[N+]([O-])c1ccc(O/N=[N+](\[O-])N2CCC(CN3CCN(/[N+]([O-])=N/Oc4ccc([N+](=O)[O-])cc4[N+](=O)[O-])CC3)CC2)c([N+](=O)[O-])c1
Activity (CCRF-CEM [1]): 28.9%
viability at 8 µM (CCRF-CEM [2]): 43.6%
Activity [3]: Active
viability at 8 µM (CCRF-CEM [4]): 65%
viability at 2 µM (CCRF-CEM [5]): 87.5%
Activity (CCRF-CEM [6]): 45.7%
Activity (CCRF-CEM [7]): 4.93%
Activity (CCRF-CEM [8]): 0.38%
Activity (CCRF-CEM [9]): 7.03%
Activity (CCRF-CEM [10]): 3.5%
Activity (CCRF-CEM [11]): Tde
Activity (CCRF-CEM [12]): Dose-dependent effect
Activity (CCRF-CEM [13]): 10.6%
Activity [14]: Active
viability at 4 µM (CCRF-CEM [15]): 77.9%
viability at 16 µM (CCRF-CEM [16]): 0.63%
Activity (CCRF-CEM [17]): 28.8%
Activity (CCRF-CEM [18]): 52.5%
Activity (CCRF-CEM [19]): 0.058%
Activity (CCRF-CEM [20]): 3.53%
Activity (CCRF-CEM [21]): 95.6%
viability at 8 µM (CCRF-CEM [22]): 61.5%
Activity (CCRF-CEM [23]): 0.015%
Activity (CCRF-CEM [24]): 63.7%
Activity (CCRF-CEM [25]): Dose-dependent effect
Activity (CCRF-CEM [26]): 6.51%
Activity (CCRF-CEM [27]): 3.64%
Activity (CCRF-CEM [28]): 56.2%
Activity (CCRF-CEM [29]): 8.4%
Activity (CCRF-CEM [30]): 24.3%
Activity (CCRF-CEM [31]): 54.5%
Activity (CCRF-CEM [32]): 0.028%
Activity (CCRF-CEM [33]): 0%
Activity (CCRF-CEM [34]): 13.8%
Activity (CCRF-CEM [35]): 0.077%
Activity (CCRF-CEM [36]): 8.93%
Activity (CCRF-CEM [37]): 0.08%
Activity (CCRF-CEM [38]): 24.5%
Activity [39]: Active
Activity (CCRF-CEM [40]): 49.8%
Activity (CCRF-CEM [41]): 27.9%
Activity (CCRF-CEM [42]): 7.5%
Activity (CCRF-CEM [43]): Tde
viability at 8 µM (CCRF-CEM [44]): 34.8%
Activity (CCRF-CEM [45]): 9.53%
Activity (CCRF-CEM [46]): 26.3%
Activity (CCRF-CEM [47]): 3%
Activity (CCRF-CEM [48]): 8.2%
Activity (CCRF-CEM [49]): 0.072%
Activity (CCRF-CEM [50]): 0.11%
Activity [51]: Active
Activity (CCRF-CEM [52]): Dose-dependent effect
Activity (CCRF-CEM [53]): Tde
viability at 8 µM (CCRF-CEM [54]): 42.5%
